Legend:
Experiment in all cases: Test F preemergence test
[1] = test system: green foxtail; type: in vivo, Setaria viridis; conditions: scale 0 to 100
From the text: (§1) Seeds of plant species selected from bermudagrass (Cynodon dactylon), Surinam grass (Brachiaria decumbens), large crabgrass (Digitaria sanguinalis), green foxtail (Setaria viridis), goosegrass (Eleusine indica), johnsongrass (Sorghum halepense), kochia (Kochia scoparia), pitted morningglory (Ipomoea lacunosa), purple nutsedge (Cyperus rotundus), common ragweed (Ambrosia elation), mustard (Brassica nigra), guineagrass (Panicum maximum), […] (Paspalum dilatatum), barnyardgrass (Echinochloa crus-galli), southern sandbur (Cenchrus echinatus), common sowthistle (Sonchus oleraceous), prickly […] spinosa), Italian ryegrass (Lolium multiflorum), common purslane (Portulaca oleracea), broadleaf signalgrass (Brachiaria platyphylla), common groundsel (Senecio vulgaris), common chickweed (Stellaria media), Virginia dayflower (Commelina virginica), annual bluegrass (Poa annua), naked crabgrass (Digitaria nuda), […] cochinchinensis), quackgrass (Elytrigia repens), Canada horseweed (Conyza canadensis), field bindweed (Convolvulus arvensis), […] (Bidens bipinnata), common mallow (Malva sylvestris), Russian thistle (Salsola kali), and sugarcane (Saccharum officinarum) were planted and treated preemergence with test chemicals formulated in a non-phytotoxic solvent mixture which included a surfactant. At a different time, sugarcane was treated with postemergence applications of some of the test chemicals formulated in the same manner. Plants were approximately 3- to 4-leaf stage for the postemergence treatments. Treated plants and controls were maintained in a greenhouse for 14 to 21 days, after which time all species were compared to controls and visually evaluated. […] A dash (-) response means no test result.

[2] = test system: mustard; type: in vivo, Brassica nigra; conditions: scale 0 to 100
From the text: as §1

[3] = test system: guineagrass; type: in vivo, Panicum maximum; conditions: scale 0 to 100
From the text: as §1

[4] = test system: dallisgrass; type: in vivo, Paspalum dilatatum; conditions: scale 0 to 100
From the text: as §1

[5] = test system: barnyardgrass; type: in vivo, Echinochloa crus-galli
From the text: as §1

[6] = test system: southern sandbur; type: in vivo, Cenchrus echinatus; conditions: scale 0 to 100
From the text: as §1

[7] = test system: prickly sida; type: in vivo, Sida spinosa; conditions: scale 0 to 100
From the text: as §1

[8] = test system: common purslane; type: in vivo, Portulaca oleracea; conditions: scale 0 to 100
From the text: as §1

[9] = test system: common groundsel; type: in vivo, Senecio vulgaris; conditions: scale 0 to 100
From the text: as §1

[10] = test system: itchgrass; type: in vivo, Rottboellia cochinchinensis; conditions: scale 0 to 100
From the text: as §1

[11] = test system: quackgrass; type: in vivo, Elytrigia repens; conditions: scale 0 to 100
From the text: as §1

[12] = test system: field bindweed; type: in vivo, Convolvulus arvensis; conditions: scale 0 to 100
From the text: as §1

[13] = test system: common mallow; type: in vivo, Malva sylvestris; conditions: scale 0 to 100
From the text: as §1

[14] = 62 g ai/ha, Preemergence, scale 0 to 100
[15] = 125 g ai/ha, preemergence, scale 0 to 100
[16] = Preemergence, 31 g ai/ha, scale 0 to 100

CCc1cc[n+]([O-])c(S(=O)(=O)Cc2c(C(F)(F)F)nn(C)c2OCC(F)(F)F)c1 [Compound 60]
Foxtail, Green plant response rating ([1]; 62 g ai/ha, Preemergence): 75 | Foxtail, Green plant response rating ([1]; 125 g ai/ha, preemergence): 100 | Foxtail, Green plant response rating ([1]; 250 g ai/ha, preemergence): 100 | Plant response rating, Foxtail, Green ([1]; Preemergence, 31 g ai/ha): 15 | Black Mustard plant response rating ([2]; 62 g ai/ha, Preemergence): 60 | Black Mustard plant response rating ([2]; 125 g ai/ha, preemergence): 100 | Black Mustard plant response rating ([2]; 250 g ai/ha, preemergence): 100 | Plant response rating, Black Mustard ([2]; Preemergence, 31 g ai/ha): 0 | Guineagrass plant response rating ([3]; 62 g ai/ha, Preemergence): 100 | Guineagrass plant response rating ([3]; 125 g ai/ha, preemergence): 100 | Guineagrass plant response rating ([3]; 250 g ai/ha, preemergence): 100 | Plant response rating, Guineagrass ([3]; Preemergence, 31 g ai/ha): 35 | Dallisgrass plant response rating ([4]; 62 g ai/ha, Preemergence): 75 | Dallisgrass plant response rating ([4]; 125 g ai/ha, preemergence): 80 | Dallisgrass plant response rating ([4]; 250 g ai/ha, preemergence): 100 | Plant response rating, Dallisgrass ([4]; Preemergence, 31 g ai/ha): 75 | Barnyardgrass plant response rating [5, 14]: 100 | Barnyardgrass plant response rating [5, 15]: 100 | Barnyardgrass plant response rating ([5]; 250 g ai/ha, preemergence, scale 0 to 100): 100 | Plant response rating, Barnyardgrass [5, 16]: 65 | Sandbur plant response rating ([6]; 125 g ai/ha, preemergence): 100 | Sandbur plant response rating ([6]; 250 g ai/ha, preemergence): 100 | Plant response rating, Sandbur ([6]; Preemergence, 62 g ai/ha): 65 | Plant response rating, Sandbur ([6]; Preemergence, 31 g ai/ha): 20 | Prickly Sida plant response rating ([7]; 62 g ai/ha, Preemergence): 40 | Prickly Sida plant response rating ([7]; 125 g ai/ha, preemergence): 75 | Prickly Sida plant response rating ([7]; 250 g ai/ha, preemergence): 75 | Plant response rating, Prickly Sida ([7]; Preemergence, 31 g ai/ha): 0 | Purslane plant response rating ([8]; 62 g ai/ha, Preemergence): 0 | Purslane plant response rating ([8]; 125 g ai/ha, preemergence): 25 | Purslane plant response rating ([8]; 250 g ai/ha, preemergence): 60 | Plant response rating, Purslane ([8]; Preemergence, 31 g ai/ha): 0 | Groundsel plant response rating ([9]; 62 g ai/ha, Preemergence): 60 | Groundsel plant response rating ([9]; 125 g ai/ha, preemergence): 75 | Groundsel plant response rating ([9]; 250 g ai/ha, preemergence): 95 | Plant response rating, Groundsel ([9]; Preemergence, 31 g ai/ha): 0 | Itchgrass plant response rating ([10]; 62 g ai/ha, Preemergence): 15 | Itchgrass plant response rating ([10]; 125 g ai/ha, preemergence): 25 | Itchgrass plant response rating ([10]; 250 g ai/ha, preemergence): 70 | Plant response rating, Itchgrass ([10]; Preemergence, 31 g ai/ha): 0 | Quackgrass plant response rating ([11]; 62 g ai/ha, Preemergence): 75 | Quackgrass plant response rating ([11]; 125 g ai/ha, preemergence): 90 | Quackgrass plant response rating ([11]; 250 g ai/ha, preemergence): 100 | Plant response rating, Quackgrass ([11]; Preemergence, 31 g ai/ha): 30 | Field Bindweed plant response rating ([12]; 62 g ai/ha, Preemergence): 30 | Field Bindweed plant response rating ([12]; 125 g ai/ha, preemergence): 50 | Field Bindweed plant response rating ([12]; 250 g ai/ha, preemergence): 70 | Plant response rating, Field Bindweed ([12]; Preemergence, 31 g ai/ha): 0 | Mallow plant response rating ([13]; 62 g ai/ha, Preemergence): 75 | Mallow plant response rating ([13]; 125 g ai/ha, preemergence): 100 | Mallow plant response rating ([13]; 250 g ai/ha, preemergence): 100 | Plant response rating, Mallow ([13]; Preemergence, 31 g ai/ha): 0

CC(c1c(C(F)(F)F)nn(C)c1OCC(F)(F)F)S(=O)(=O)c1cccc[n+]1[O-] (racemic) [Compound 33]
Plant response rating, Foxtail, Green ([1]; 16 g ai/ha, preemergence): 0 | Foxtail, Green plant response rating ([1]; 62 g ai/ha, Preemergence): 100 | Foxtail, Green plant response rating ([1]; 125 g ai/ha, preemergence): 100 | Plant response rating, Foxtail, Green ([1]; Preemergence, 31 g ai/ha): 50 | Plant response rating, Black Mustard ([2]; 16 g ai/ha, preemergence): 10 | Black Mustard plant response rating ([2]; 62 g ai/ha, Preemergence): 100 | Black Mustard plant response rating ([2]; 125 g ai/ha, preemergence): 100 | Plant response rating, Black Mustard ([2]; Preemergence, 31 g ai/ha): 65 | Plant response rating, Guineagrass ([3]; 16 g ai/ha, preemergence): 70 | Guineagrass plant response rating ([3]; 62 g ai/ha, Preemergence): 100 | Guineagrass plant response rating ([3]; 125 g ai/ha, preemergence): 100 | Plant response rating, Guineagrass ([3]; Preemergence, 31 g ai/ha): 100 | Plant response rating, Dallisgrass ([4]; 16 g ai/ha, preemergence): 30 | Dallisgrass plant response rating ([4]; 62 g ai/ha, Preemergence): 80 | Dallisgrass plant response rating ([4]; 125 g ai/ha, preemergence): 100 | Plant response rating, Dallisgrass ([4]; Preemergence, 31 g ai/ha): 65 | Plant response rating, Barnyardgrass ([5]; 16 g ai/ha, preemergence, scale 0 to 100 (0 no effect, 100 complete control)): 100 | Barnyardgrass plant response rating [5, 14]: 100 | Barnyardgrass plant response rating [5, 15]: 100 | Plant response rating, Barnyardgrass [5, 16]: 100 | Plant response rating, Sandbur ([6]; 16 g ai/ha, preemergence): 100 | Sandbur plant response rating ([6]; 125 g ai/ha, preemergence): 100 | Plant response rating, Sandbur ([6]; Preemergence, 62 g ai/ha): 100 | Plant response rating, Sandbur ([6]; Preemergence, 31 g ai/ha): 100 | Plant response rating, Prickly Sida ([7]; 16 g ai/ha, preemergence): 25 | Prickly Sida plant response rating ([7]; 62 g ai/ha, Preemergence): 90 | Prickly Sida plant response rating ([7]; 125 g ai/ha, preemergence): 100 | Plant response rating, Prickly Sida ([7]; Preemergence, 31 g ai/ha): 90 | Plant response rating, Purslane ([8]; 16 g ai/ha, preemergence): 0 | Purslane plant response rating ([8]; 62 g ai/ha, Preemergence): 65 | Purslane plant response rating ([8]; 125 g ai/ha, preemergence): 100 | Plant response rating, Purslane ([8]; Preemergence, 31 g ai/ha): 20 | Groundsel plant response rating ([9]; 125 g ai/ha, preemergence): 100 | Plant response rating, Itchgrass ([10]; 16 g ai/ha, preemergence): 25 | Itchgrass plant response rating ([10]; 62 g ai/ha, Preemergence): 80 | Itchgrass plant response rating ([10]; 125 g ai/ha, preemergence): 100 | Plant response rating, Itchgrass ([10]; Preemergence, 31 g ai/ha): 40 | Plant response rating, Quackgrass ([11]; 16 g ai/ha, preemergence): 0 | Quackgrass plant response rating ([11]; 62 g ai/ha, Preemergence): 75 | Quackgrass plant response rating ([11]; 125 g ai/ha, preemergence): 95 | Plant response rating, Quackgrass ([11]; Preemergence, 31 g ai/ha): 25 | Plant response rating, Field Bindweed ([12]; 16 g ai/ha, preemergence): 0 | Field Bindweed plant response rating ([12]; 62 g ai/ha, Preemergence): 50 | Field Bindweed plant response rating ([12]; 125 g ai/ha, preemergence): 60 | Plant response rating, Field Bindweed ([12]; Preemergence, 31 g ai/ha): 0 | Plant response rating, Mallow ([13]; 16 g ai/ha, preemergence): 100 | Mallow plant response rating ([13]; 62 g ai/ha, Preemergence): 100 | Mallow plant response rating ([13]; 125 g ai/ha, preemergence): 100 | Plant response rating, Mallow ([13]; Preemergence, 31 g ai/ha): 100

— patent US20100298141A1, “SUBSTITUTED PYRIDINE N-OXIDE HERBICIDES” (E. I. DU PONT DE NEMOURS AND COMPANY, priority 2007, published 2010)
